Activity calls are given as the source filed them. No rule for the calls is given here.
Target: corticotropin-releasing factor-binding protein / CRF receptor 2 complex (human)
Test: blockers of CRF-binding protein–CRF-R2 complex – cell-based, uHTS hits, 384-well, dose response (AID 651639)
Conditions: CRF-BP/CRF-R2 complex antagonism, cell-based 384-well

Compound: Cc1ccc(S(=O)(=O)N(CC(=O)N=Nc2c(O)[nH]c3ccccc23)c2ccc(C)c(C)c2)cc1
- IC50: > 20 µM (inactive)

Compound: O=[N+]([O-])c1cc(/C=N\O)ccc1Oc1ccc(F)cc1
- IC50: 17.5 µM

Compound: Cc1ccc2nc(N3C(=O)C(O)=C(C(=O)c4ccco4)C3c3cccc(O)c3)sc2c1 (stereo not given)
- IC50: > 20 µM (inactive)

Compound: N#C/C(=C(/O)Cc1cccc2ccccc12)c1nc2ccccc2s1
- IC50: 11.3 µM

Compound: Cc1cc(=O)oc2c1ccc1oc(/C(=N/O)c3ccccc3)c(C)c12
- IC50: > 20 µM (inactive)

Compound: O=C(O)c1ccc(/C=N/Nc2cccc(C(F)(F)F)c2)cc1
- IC50: > 20 µM (inactive)

Compound: Cc1ccc(-n2[nH]c(C)c(/C=N/Nc3ccc([N+](=O)[O-])cc3[N+](=O)[O-])c2=O)cc1
- IC50: 15.5 µM

Compound: Cc1ccc2nc(N3C(=O)C(O)=C(C(=O)c4ccc(C)o4)C3c3cccc(O)c3)sc2c1 (stereo not given)
- IC50: 10.4 µM

Compound: O=C1N=c2ccccc2=C1c1sc(=S)n(NC(=O)c2cccc(O)c2)c1O
- IC50: > 20 µM (inactive)

Compound: N#C/C(=C(/O)COc1ccc(Cl)cc1)c1nc2ccccc2s1
- IC50: > 20 µM (inactive)

Compound: CN1C(=O)C(N=Nc2ccc([N+](=O)[O-])cc2)SC1=S (stereo not given)
- IC50: 1 µM

Compound: COc1ccc(/C=N/OCC(=O)N=Nc2c(O)[nH]c3ccc(Br)cc23)cc1
- IC50: > 20 µM (inactive)

Compound: CN1c2ccccc2C(O)=C(C(=S)Nc2ccc(Cl)cc2)S1(=O)=O
- IC50: > 20 µM (inactive)

Compound: COc1ccc(C(C)=NNc2ccc([N+](=O)[O-])cc2S(=O)(=O)Nc2ccccc2C(=O)O)c(OC)c1
- IC50: 9.4 µM

Compound: COC(=O)c1ccc(/C(O)=C(\C#N)c2nc3ccccc3s2)cc1
- IC50: > 20 µM (inactive)

From PubChem BioAssay AID651639 (Sanford-Burnham Center for Chemical Genomics, 2012)
